Assay results from US12024510B2, “Pyrazolopyridine-diamides, their use as insecticide and processes for preparing the same” (PI INDUSTRIES LTD., priority 2017, dated 2024).

Key:
Type in all cases: in vivo
[1] = system: Helicoverpa armigera; experiment: Helicoverpa armigera diet incorporation method; details: third instar larvae, dead and moribund combined, 96 h after release
Outline: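 Third-instar larvae, starved, were placed singly on diet pieces containing test dispersion (bead-milled in surfactant, particles under 2 μm, 500 ppm stock then diluted). Trays kept at 25° C. and 70% RH; mortality counted at 96 h, moribund larvae counted with dead.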

[2] = system: Spodoptera litura; experiment: Spodoptera litura diet incorporation method; details: third instar larvae, dead and moribund combined, 96 h after release
Description: Test Solutions were Prepared According to the Procedure Described Herein Below (500 PPM):
• 1. Eppendorf Vortex mixer (ThermoMixer C) and 1.5 mL Eppendorf tubes • 2. Zirconia (Zirconium-Yttrium) beads having diameter of 0.8 to 1.0 mm • 3. Microscope • 4. Beaker 100 mL • 5. Micro-pipette Reagents: • 1. Surfactant Solution • 2. De-mineralized (DM) Water • 1. Weigh 10 mg of the compound of the present invention to be tested in an Eppendorf Tube. • 2. Add 200 mg of the Surfactant Solution into the tube. • 3. Add 600 mg of Zirconia beads into the above mixture. • 4. Fix the tube in Eppendorf Vortex mixer and start vortexing at 2000 rpm. • 5. Mix on Vortex mixer for 30 minutes. After 30 minutes, observe the sample over a microscope at 400× resolution. • 6. If the Maximum particle size is more than 5 μm or average particle size is more than 2 μm or the particle size distribution is uneven, continue vortexing for another 30 minutes and again check the particle size using the microscope. Continue till the average particle size is below 2 microns. • 7. When the required particle size is achieved, add 1.0 mL DM water into the tube, close the cap, shake the tube thoroughly and transfer the contents, along with the beads, into a beaker. • 8. To rinse the tube, add another 1.0 mL of DM water into the tube, close the cap, shake well and transfer this into the same beaker. • 9. Repeat Step no. 8 one more time so that the tube is rinsed well and the compound of the present invention to be tested is transferred to the beaker. • 10. Add 16.8 mL of DM water into the beaker and stir well. • 11. The homogeneous dispersion can then be decanted into a glass vial, immediately, to separate the Zirconia beads. • 12. Immediately use this sample for biological testing. • 13. Further dilutions can be prepared by taking appropriate quantity of the aliquot of Step 10, immediately after stirring, and diluting as per requirement. The sample solution must be well mixed just before biological testing.
Diet incorporation method was used, in which semi-synthetic diet was incorporated into the test solution when the temperature is approximately 50° C. in the bioassay containers and stirred thoroughly for properly mixing and then was allowed to cool for 30 min. The solidified diet was cut into equal pieces, and then each piece was transferred in one cell in Bio-assay trays. A single third instar starved larva was released into each of these cells of bioassay trays and the tray was covered with the lid. The bio-assay trays were kept under laboratory conditions at a temperature of 25° C. and Relative Humidity of 70%. Observations on dead, moribund and live larvae were recorded at 96 h after the release of larvae. Percent mortality was calculated by combining dead and moribund larvae. The following compound numbers

[3] = system: Plutella xylostella; experiment: whole plant or invertebrate; details: foliar, cabbage leaf dip, second instar larvae, dead and moribund combined, 72 h after release
Outline: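 Leaf-dip bioassay: second-instar larvae, singly, fed on cabbage leaves dipped 10 s in test dispersion (bead-milled, diluted with 0.01% Triton-X to test concentration) and dried 20 min. Held at 25 °C, 70% RH; % mortality counts dead and moribund at 72 h.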

SMILES | mortality at 300 ppm [1] [%] | mortality at 300 ppm [2] [%] | mortality at 300 ppm [3] [%]
Cc1cc2ccnn2c(C(=O)NC2CC2)c1NC(=O)c1cc(Cn2nnc(C(F)(F)F)n2)nn1-c1ncccc1Cl [Compound 168, 6-(1-(3-chloropyridin-2-yl)-3-((5-(trifluoromethyl)-2H-tetrazol-2-yl)methyl)-1H-pyrazole-5-carboxamido)-N-cyclopropyl-5-methylpyrazolo[1,5-a]pyridine-7-carboxamide] | > 70 | > 70 | 
C=CCNC(=O)c1c(NC(=O)c2cc(C(F)(F)F)nn2-c2ncccc2Cl)c(C)cc2ccnn12 [Compound 64, N-allyl-6-(1-(3-chloropyridin-2-yl)-3-(trifluoromethyl)-1H-pyrazole-5-carboxamido)-5-methylpyrazolo[1,5-a]pyridine-7-carboxamide] | > 70 | > 70 | 
C=CCNC(=O)c1c(NC(=O)c2cc(Br)nn2-c2ncccc2Cl)c(Br)cc2ccnn12 [Compound 56, N-allyl-5-bromo-6-(3-bromo-1-(3-chloropyridin-2-yl)-1H-pyrazole-5-carboxamido)pyrazolo[1,5-a]pyridine-7-carboxamide] | > 70 | > 70 | > 70
CCNC(=O)c1c(NC(=O)c2cc(C(F)(F)F)nn2-c2ncccc2Cl)c(C)cc2ccnn12 [Compound 59, 6-(1-(3-chloropyridin-2-yl)-3-(trifluoromethyl)-1H-pyrazole-5-carboxamido)-N-ethyl-5-methylpyrazolo[1,5-a]pyridine-7-carboxamide] | > 70 | > 70 | > 70
Cc1cc2ccnn2c(C(=O)NCCC#N)c1NC(=O)c1cc(OCC(F)(F)F)nn1-c1ncccc1Cl [Compound 47, 6-(1-(3-chloropyridin-2-yl)-3-(2,2,2-trifluoroethoxy)-1H-pyrazole-5-carboxamido)-N-(2-cyanoethyl)-5-methylpyrazolo[1,5-a]pyridine-7-carboxamide] |  | > 70 | > 70
CCONC(=O)c1c(NC(=O)c2cc(Br)nn2-c2ncccc2Cl)c(C)cc2ccnn12 [Compound 106, 6-(3-bromo-1-(3-chloropyridin-2-yl)-1H-pyrazole-5-carboxamido)-N-ethoxy-5-methylpyrazolo[1,5-a]pyridine-7-carboxamide] |  | > 70 | > 70
Cc1cc2ccnn2c(C(=O)NC2CSC2)c1NC(=O)c1cc(Br)nn1-c1ncccc1Cl [Compound 207, 6-(3-bromo-1-(3-chloropyridin-2-yl)-1H-pyrazole-5-carboxamido)-5-methyl-N-(thietan-3-yl)pyrazolo[1,5-a]pyridine-7-carboxamide] |  | > 70 | > 70
COCCNC(=O)c1c(NC(=O)c2cc(OCC(F)(F)F)nn2-c2ncccc2Cl)c(C)cc2ccnn12 [Compound 17, 6-(1-(3-chloropyridin-2-yl)-3-(2,2,2-trifluoroethoxy)-1H-pyrazole-5-carboxamido)-N-(2-methoxyethyl)-5-methylpyrazolo[1,5-a]pyridine-7-carboxamide] |  | > 70 | > 70
CCCC(C)NC(=O)c1c(NC(=O)c2cc(OC)nn2-c2ncccc2Cl)c(C)cc2ccnn12 (stereo not drawn) [Compound 184, 6-(1-(3-chloropyridin-2-yl)-3-methoxy-1H-pyrazole-5-carboxamido)-5-methyl-N-(pentan-2-yl)pyrazolo[1,5-a]pyridine-7-carboxamide] |  | > 70 | > 70
Cc1cc2ccnn2c(C(=O)NC(C)C2CC2)c1NC(=O)c1cc(OC2CSC2)nn1-c1ncccc1Cl (stereo not drawn) [Compound 146, 6-(1-(3-chloropyridin-2-yl)-3-(thietan-3-yloxy)-1H-pyrazole-5-carboxamido)-N-(1-cyclopropylethyl)-5-methylpyrazolo[1,5-a]pyridine-7-carboxamide] | > 70 | > 70 | 
CCCNC(=O)c1c(NC(=O)c2cc(C(F)(F)F)nn2-c2ncccc2Cl)c(C)cc2ccnn12 [Compound 92, 6-(1-(3-chloropyridin-2-yl)-3-(trifluoromethyl)-1H-pyrazole-5-carboxamido)-5-methyl-N-propylpyrazolo[1,5-a]pyridine-7-carboxamide] | > 70 | > 70 | 
COc1cc(C(=O)Nc2c(C)cc3ccnn3c2C(=O)NCC(F)(F)F)n(-c2ncccc2Cl)n1 [Compound 110, 6-(1-(3-chloropyridin-2-yl)-3-methoxy-1H-pyrazole-5-carboxamido)-5-methyl-N-(2,2,2-trifluoroethyl)pyrazolo[1,5-a]pyridine-7-carboxamide] |  | > 70 | > 70
COc1cc(C(=O)Nc2c(Cl)cc3ccnn3c2C(=O)NC(C)(C)C)n(-c2ncccc2Cl)n1 [Compound 136, N-(tert-butyl)-5-chloro-6-(1-(3-chloropyridin-2-yl)-3-methoxy-1H-pyrazole-5-carboxamido)pyrazolo[1,5-a]pyridine-7-carboxamide] | > 70 | > 70 | 
Cc1cc2ccnn2c(C(=O)NC(C)CCC(C)C)c1NC(=O)c1cc(Br)nn1-c1ncccc1Cl (stereo not drawn) [Compound 188, 6-(3-bromo-1-(3-chloropyridin-2-yl)-1H-pyrazole-5-carboxamido)-5-methyl-N-(5-methylhexan-2-yl)pyrazolo[1,5-a]pyridine-7-carboxamide] |  | > 70 | > 70
Cc1cc2ccnn2c(C(=O)NC(C)C2CC2)c1NC(=O)c1cc(Cn2nnc(C(F)(F)F)n2)nn1-c1ncccc1Cl (stereo not drawn) [Compound 169, 6-(1-(3-chloropyridin-2-yl)-3-((5-(trifluoromethyl)-2H-tetrazol-2-yl)methyl)-1H-pyrazole-5-carboxamido)-N-(1-cyclopropylethyl)-5-methylpyrazolo[1,5-a]pyridine-7-carboxamide] | > 70 | > 70 | 
Cc1cc2ccnn2c(C(=O)NC2(C#N)CC2)c1NC(=O)c1cc(Br)nn1-c1ncccc1Cl [Compound 216, 6-(3-bromo-1-(3-chloropyridin-2-yl)-1H-pyrazole-5-carboxamido)-N-(1-cyanocyclopropyl)-5-methylpyrazolo[1,5-a]pyridine-7-carboxamide] |  | > 70 | > 70
Cc1cc2ccnn2c(C(=O)NC(C)C2CC2)c1NC(=O)c1cc(OCC(F)(F)F)nn1-c1ncccc1Cl (stereo not drawn) [Compound 121, 6-(1-(3-chloropyridin-2-yl)-3-(2,2,2-trifluoroethoxy)-1H-pyrazole-5-carboxamido)-N-(1-cyclopropylethyl)-5-methylpyrazolo[1,5-a]pyridine-7-carboxamide] | > 70 | > 70 | 
CCNC(=O)c1c(NC(=O)c2cc(Br)nn2-c2ncccc2Cl)c(Cl)cc2ccnn12 [Compound 142, 6-(3-bromo-1-(3-chloropyridin-2-yl)-1H-pyrazole-5-carboxamido)-5-chloro-N-ethylpyrazolo[1,5-a]pyridine-7-carboxamide] |  | > 70 | > 70
CC(C)NC(=O)c1c(NC(=O)c2cc(C(F)(F)F)nn2-c2ncccc2Cl)c(Br)cc2ccnn12 [Compound 107, 5-bromo-6-(1-(3-chloropyridin-2-yl)-3-(trifluoromethyl)-1H-pyrazole-5-carboxamido)-N-isopropylpyrazolo[1,5-a]pyridine-7-carboxamide] | > 70 | > 70 | 
Cc1cc2ccnn2c(C(=O)NCC2CCCO2)c1NC(=O)c1cc(Br)nn1-c1ncccc1Cl (racemic) [Compound 189, rac-(R)-6-(3-bromo-1-(3-chloropyridin-2-yl)-1H-pyrazole-5-carboxamido)-5-methyl-N-((tetrahydrofuran-2-yl)methyl)pyrazolo[1,5-a]pyridine-7-carboxamide] |  | > 70 | > 70
